Patent publication US10092575B2, “Substituted thiophene- and furan-fused azolopyrimidine-5-(6H)-one compounds” (DART NEUROSCIENCE (CAYMAN) LTD., priority 2012, dated 2018)

target: human PDE1b enzyme (Homo sapiens (Human), UniProt Q01064); test: PDE1b inhibitory assay (IMAP TR-FRET); conditions: not given

| Structure (SMILES) | EC50 [nM] |
| --- | --- |
| COc1ccc(Cn2c(=O)n3ncnc3c3c4c(sc32)CN(C(C)C(F)F)CC4)cc1 (centres unmarked) [Example 151, 9-(1,1-Difluoropropan-2-yl)-6-(4-methoxybenzyl)-8,9,10,11-tetrahydropyrido[4′,3′:4,5]thieno[3,2-e][1,2,4]triazolo[1,5-c]pyrimidin-5(6H)-one] | 100 to 1000 |
| COc1ccc(Cn2c(=O)n3ncnc3c3c4c(sc32)N(Cc2ccc(Cl)cc2)CCC4)cc1 [Example 152, 8-(4-Chlorobenzyl)-6-(4-methoxybenzyl)-8,9,10,11-tetrahydropyrido[3′,2′:4,5]thieno[3,2-e][1,2,4]triazolo[1,5-c]pyrimidin-5 (6H)-one] | 100 to 1000 |
| COc1ccc(Cn2c(=O)n3ncnc3c3c4c(sc32)N(Cc2ccc(Cl)cc2)CCC4)cc1OC [Example 153, 8-(4-Chlorobenzyl)-6-(3,4-dimethoxybenzyl)-8,9,10,11-tetrahydropyrido[3′,2′:4,5]thieno[3,2-e][1,2,4]triazolo[1,5-c]pyrimidin-5 (6H)-one] | 1000 to 10000 |
| COc1ccc(Cn2c(=O)n3ncnc3c3c4c(sc32)N(Cc2cccc(Cl)c2)CCC4)cc1OC [Example 155, 8-(3-Chlorobenzyl)-6-(3,4-dimethoxybenzyl)-8,9,10,11-tetrahydropyrido[3′,2′:4,5]thieno[3,2-e][1,2,4]triazolo[1,5-c]pyrimidin-5(6H)-one] | 1000 to 10000 |
| COc1ccc(Cn2c(=O)n3ncnc3c3c4c(sc32)CN(C(=O)C2CCN(C)C2)CC4)cc1 (centres unmarked) [Example 163, 6-(4-Methoxybenzyl)-9-(1-methylpyrrolidine-3-carbonyl)-8,9,10,11-tetrahydropyrido[4′,3′:4,5]thieno[3,2-e][1,2,4]triazolo[1,5-c]pyrimidin-5(6H)-one] | 100 to 1000 |

same assay, conditions: negative log of half-maximal molar inhibitory concentration; 200 nM FAM-cAMP; reported as ranges

| Structure (SMILES) | PDE1b (pEC50) |
| --- | --- |
| COc1ccc(Cn2c(=O)n3ncnc3c3c4c(sc32)CN(Cc2ncccn2)CCC4)cc1 [Example 145, 6-(4-Methoxybenzyl)-9-(pyrimidin-2-ylmethyl)-6,8,9,10,11,12-hexahydro-5H-[1,2,4]triazolo[1″,5″:1′,6]pyrimido[5′,4′:4,5]thieno[2,3-c]azepin-5-one] | >7 |
| COc1ccc(Cn2c(=O)n3ncnc3c3c4c(sc32)CN(Cc2ccccn2)CCC4)cc1 [Example 146, 6-(4-Methoxybenzyl)-9-(pyridin-2-ylmethyl)-6,8,9,10,11,12-hexahydro-5H-[1,2,4]triazolo[1″,5″:1′,6′]pyrimido[5′,4′:4,5]thieno[2,3-c]azepin-5-one] | >7 |
| COc1ccc(Cn2c(=O)n3ncnc3c3c4c(sc32)CN(CC2CCOCC2)CCC4)cc1 [Example 147, 6-(4-Methoxybenzyl)-9-((tetrahydro-2H-pyran-4-yl)methyl)-6,8,9,10,11,12-hexahydro-5H-[1,2,4]triazolo[1″,5″:1′,6′]pyrimido[5′,4′:4,5]thieno[2,3-c]azepin-5-one] | >7 |
| COc1ccc(Cn2c(=O)n3ncnc3c3c4c(sc32)N(CC2CCOCC2)CCC4)cc1 [Example 148, 6-(4-Methoxybenzyl)-8-((tetrahydro-2H-pyran-4-yl)methyl)-8,9,10,11-tetrahydropyrido[3′,2′:4,5]thieno[3,2-e][1,2,4]triazolo[1,5-c]pyrimidin-5(6H)-one] | >7 |
| COc1ccc(Cn2c(=O)n3ncnc3c3c4c(sc32)N(CC2CCCOC2)CCC4)cc1 (centres unmarked) [Example 149, 6-(4-Methoxybenzyl)-8-((tetrahydro-2H-pyran-3-yl)methyl)-8,9,10,11-tetrahydropyrido[3′,2′:4,5]thieno[3,2-e][1,2,4]triazolo[1,5-c]pyrimidin-5(6H)-one] | >7 |
| COc1ccc(Cn2c(=O)n3ncnc3c3c4c(sc32)N(CC2CCOC2)CCC4)cc1 (centres unmarked) [Example 150, 6-(4-Methoxybenzyl)-8-((tetrahydrofuran-3-yl)methyl)-8,9,10,11-tetrahydropyrido[3′,2′:4,5]thieno[3,2-e][1,2,4]triazolo[1,5-c]pyrimidin-5(6H)-one] | >7 |
| COc1ccc(Cn2c(=O)n3ncnc3c3c4c(sc32)CN(CC2CCOCC2)CC4(F)F)c(F)c1 [Example 156, 11,11-Difluoro-6-(2-fluoro-4-methoxybenzyl)-9-((tetrahydro-2H-pyran-4-yl)methyl)-8,9,10,11-tetrahydropyrido[4′,3′:4,5]thieno[3,2-e][1,2,4]triazolo[1,5-c]pyrimidin-5(6H)-one] | >7 |
| O=C(c1cnccn1)N1CCc2c(sc3c2c2ncnn2c(=O)n3Cc2ccc(Cl)cc2)C1 [Example 157, 6-(4-Chlorobenzyl)-9-(pyrazine-2-carbonyl)-8,9,10,11-tetrahydropyrido[4′,3′:4,5]thieno[3,2-e][1,2,4]triazolo[1,5-c]pyrimidin-5(6H)-one] | >7 |
| COc1ccc(Cn2c(=O)n3ncnc3c3c4c(sc32)CN(C(=O)C2CC2)CC4)cc1 [Example 159, 9-(Cyclopropanecarbonyl)-6-(4-methoxybenzyl)-8,9,10,11-tetrahydropyrido[4′,3′:4,5]thieno[3,2-e][1,2,4]triazolo[1,5-c]pyrimidin-5(6H)-one] | >7 |
| COc1ccc(Cn2c(=O)n3ncnc3c3c4c(sc32)CN(S(C)(=O)=O)CC4)cc1 [Example 162, 6-(4-Methoxybenzyl)-9-(methylsulfonyl)-8,9,10,11-tetrahydropyrido[4′,3′:4,5]thieno[3,2-e][1,2,4]triazolo[1,5-c]pyrimidin-5(6H)-one] | >7 |
| O=C(C1CC1)N1CCc2c(sc3c2c2ncnn2c(=O)n3Cc2ccc(Cl)cc2F)C1 [Example 164, 6-(4-Chloro-2-fluorobenzyl)-9-(cyclopropanecarbonyl)-8,9,10,11-tetrahydropyrido[4′,3′:4,5]thieno[3,2-e][1,2,4]triazolo[1,5-c]pyrimidin-5(6H)-one] | >7 |
| COc1ccc(Cn2c(=O)n3ncnc3c3c4c(sc32)CN(C(=O)C2CCOC2)CC4(F)F)cc1 (centres unmarked) [Example 166, 11,11-Difluoro-6-(4-methoxybenzyl)-9-(tetrahydrofuran-3-carbonyl)-8,9,10,11-tetrahydropyrido[4′,3′:4,5]thieno[3,2-e][1,2,4]triazolo[1,5-c]pyrimidin-5 (6H)-one] | >7 |
| COc1ccc(Cn2c(=O)n3ncnc3c3c4c(sc32)CN(C(=O)C2CCOC2)CC4)c(F)c1 (centres unmarked) [Example 167, 6-(2-Fluoro-4-methoxybenzyl)-9-(tetrahydrofuran-3-carbonyl)-8,9,10,11-tetrahydropyrido[4′,3′:4,5]thieno[3,2-e][1,2,4]triazolo[1,5-c]pyrimidin-5(6H)-one] | >7 |
| COc1ccc(Cn2c(=O)n3ncnc3c3c4c(sc32)CN(C(=O)C2CC2)CC4)c(F)c1 [Example 168, 9-(Cyclopropanecarbonyl)-6-(2-fluoro-4-methoxybenzyl)-8,9,10,11-tetrahydropyrido[4′,3′:4,5]thieno[3,2-e][1,2,4]triazolo[1,5-c]pyrimidin-5(6H)-one] | >7 |
| COc1ccc(Cn2c(=O)n3ncnc3c3c4c(sc32)CN(C(=O)[C@@H]2CCOC2)CC4)cc1 [Example 169, (R)-6-(4-Methoxybenzyl)-9-(tetrahydrofuran-3-carbonyl)-8,9,10,11-tetrahydropyrido[4′,3′:4,5]thieno[3,2-e][1,2,4]triazolo[1,5-c]pyrimidin-5(6H)-one] | >7 |
